Consider 3 compounds from ChEMBL document CHEMBL1138427, “Intestinal permeability of antivirus constituents from the fruits of Eucalyptus globulus Labill. in Caco-2 Cell Model” (Bioorg Med Chem Lett, 2007).

What is called Papp B→A is the apparent permeability from the basolateral to the apical side of a cell layer. The term Papp A→B denotes the apparent permeability from the apical to the basolateral side of a cell layer.

Assay type in all cases: ADME, cell-based
A short description of data set [1]: Drug level in Caco-2 cells assessed as total recovery rate at 50 uM after 150 mins. Conditions: human, read-out: Drug uptake.
Data set [2] is described as follows: Apparent permeability from basolateral to apical side of human Caco-2 cells at 50 uM after 90 mins. On the technique in general: Caco-2 monolayers are a common model of the intestinal barrier.
A short description of data set [3]: Apparent permeability from basolateral to apical side of human Caco-2 cells at 50 uM in presence of iodoacetamide. Particulars: Caco-2, with iodoacetamide (concentration not stated).
Data set [4] is described as follows: Apparent permeability from apical to basolateral side of human Caco-2 cells at 50 uM in presence of iodoacetamide. Particulars: Caco-2, with iodoacetamide (concentration not stated).
The test system of data set [5] is Caco-2. Briefly: Ratio of permeability from basolateral to apical side over apical to basolateral side of human Caco-2 cells at 100 uM. Particulars: caco-2, 100 µM.
The test system of data set [6] is Caco-2. Briefly: Drug level in Caco-2 cells assessed as intracellular accumulation at 50 uM after 90 mins. Conditions: human, caco-2, 1.5 h.
Data set [7] can be described thus: Drug level in Caco-2 cells assessed as total recovery rate at 50 uM after 90 mins. Particulars: human, read-out: Drug uptake.
In data set [8] the test system is Caco-2. Briefly: Drug level in Caco-2 cells assessed as intracellular accumulation at 50 uM after 60 mins. Conditions: human, caco-2, 1 h.
Data set [9] can be described thus: Apparent permeability from apical to basolateral side of human Caco-2 cells at 50 uM after 90 mins.
Data set [10] is described as follows: Drug level in Caco-2 cells assessed as total recovery rate at 50 uM after 120 mins. Particulars: human, read-out: Drug uptake.
A short description of data set [11]: Apparent permeability from basolateral to apical side of human Caco-2 cells at 30 uM after 90 mins.
Data set [12] concerns Caco-2. Briefly: Drug level in Caco-2 cells assessed as intracellular accumulation at 50 uM after 30 mins. Particulars: human, caco-2, 0.5 h.
For data set [13], the system named is Caco-2. Briefly: Ratio of permeability from basolateral to apical side over apical to basolateral side of human Caco-2 cells at 50 uM. Particulars: caco-2, 50 µM.
The subject of data set [14] is Caco-2. Briefly: Ratio of permeability from basolateral to apical side over apical to basolateral side of human Caco-2 cells at 30 uM. Particulars: caco-2, 30 µM.
Data set [15] relates to Caco-2. Briefly: Drug level in Caco-2 cells assessed as intracellular accumulation at 50 uM after 180 mins. Conditions: human, caco-2, 3 h.
Data set [16] in a line: Apparent permeability from basolateral to apical side of human Caco-2 cells at 100 uM after 90 mins.
Data set [17] has as its system Caco-2. Briefly: Drug level in Caco-2 cells assessed as intracellular accumulation at 50 uM after 120 mins. Conditions: human, caco-2, 2 h.
Data set [18] is described as follows: Drug level in Caco-2 cells assessed as total recovery rate at 50 uM after 180 mins. Conditions: human, read-out: Drug uptake.
The nature of data set [19]: Drug level in Caco-2 cells assessed as total recovery rate at 50 uM after 30 mins. Conditions: human, read-out: Drug uptake.
Data set [20] is described as follows: Apparent permeability from apical to basolateral side of human Caco-2 cells at 100 uM after 90 mins.
In data set [21] the test system is Caco-2. Briefly: Drug level in Caco-2 cells assessed as intracellular accumulation at 50 uM after 150 mins. Conditions: human, caco-2, 2.5 h.
Data set [22] is described as follows: Apparent permeability from apical to basolateral side of human Caco-2 cells at 30 uM after 90 mins.
The nature of data set [23]: Drug level in Caco-2 cells assessed as total recovery rate at 50 uM after 60 mins. Particulars: human, read-out: Drug uptake.

Take `Cc1cc(=O)c2c(O)cc(O[C@@H]3O[C@H](COC(=O)C4=CC[C@H](C(C)(C)O)CC4)[C@@H](O)[C@H](O)[C@H]3O)cc2o1` [CYPELLOCARPA C]: the recovery at 2.5 h, 50 µM in data set [1] was 54.6%. The apparent permeability from basolateral to apical (Papp B→A) at 1.5 h, 50 µM in data set [2] came out at 33.2 nm/s. The apparent permeability from basolateral to apical (Papp B→A) at 50 µM in [3] worked out at 24.6 nm/s. Besides, the apical-to-basolateral permeability (Papp A→B) at 50 µM in data set [4] came to 8.97 nm/s. Also, the results for the Ratio in the data set on Caco-2 [5], with Caco-2 [13] and with Caco-2 [14] were 1.81, 1.8 and 2.74, respectively. Besides, the Drug uptake with Caco-2 [6] amounted to 0.81%; in the data set with Caco-2 [8] it was 0.83%; in the data set with Caco-2 [12] it was 1.42%; in the data set with Caco-2 [15] it was 0.89%; with Caco-2 [17], 0.69%; in the data set on Caco-2 [21], 0.81%. Also, the recovery at 1.5 h, 50 µM in data set [7] stood at 52.8%. For the same compound, the apparent permeability from apical to basolateral (Papp A→B) at 1.5 h, 50 µM in [9] came out at 59.9 nm/s. In [10], the recovery at 2 h, 50 µM turned out to be 52.7%. The Papp B→A at 1.5 h, 30 µM in data set [11] came to 26.6 nm/s. Besides, the apparent permeability from basolateral to apical (Papp B→A) at 1.5 h, 100 µM in data set [16] turned out to be 27.1 nm/s. Further, the recovery at 3 h, 50 µM in [18] was determined as 52.5%. In addition, the recovery at 0.5 h, 50 µM in data set [19] came to 56.8%. Besides, in data set [20], the Papp A→B at 1.5 h, 100 µM worked out at 48.2 nm/s. Moreover, the Papp A→B at 1.5 h, 30 µM in data set [22] was 74 nm/s. The recovery at 1 h, 50 µM in [23] was 53.1%.

As to `CC(C)C[C@@H](c1c(O)c(C=O)c(O)c(C=O)c1O)[C@@]1(C)CC[C@@H]2[C@@H]1[C@H]1[C@@H](CC[C@@]2(C)O)C1(C)C` [MACROCARPAL A], the recovery at 2.5 h, 50 µM in data set [1] was found to be 68.5%. Also, in data set [2], the Papp B→A at 1.5 h, 50 µM amounted to 16.8 nm/s. The Ratio turned out to be 1.27 in the data set with Caco-2 [5], 0.98 in the data set with Caco-2 [13] and 1.02 in the data set on Caco-2 [14]. Also, the Drug uptake in the data set with Caco-2 [6] is given as 44.21%; in the data set on Caco-2 [8], 40.79%; in the data set on Caco-2 [12], 36.8%; in the data set with Caco-2 [15], 56.67%; in the data set on Caco-2 [17], 50.42%; with Caco-2 [21], 50.57%. Further, the recovery at 1.5 h, 50 µM in data set [7] is 60.8%. Also, the Papp A→B at 1.5 h, 50 µM in [9] turned out to be 16.4 nm/s. Further, the recovery at 2 h, 50 µM in data set [10] came out at 69.8%. The Papp B→A at 1.5 h, 30 µM in data set [11] is 16.3 nm/s. Besides, the Papp B→A at 1.5 h, 100 µM in data set [16] amounted to 14.2 nm/s. Further, the recovery at 3 h, 50 µM in data set [18] worked out at 75.7%. In addition, in [19], the recovery at 0.5 h, 50 µM was 76.4%. Further, the Papp A→B at 1.5 h, 100 µM in data set [20] worked out at 18 nm/s. Further, the apparent permeability from apical to basolateral (Papp A→B) at 1.5 h, 30 µM in data set [22] was determined as 16.6 nm/s. Moreover, in data set [23], the recovery at 1 h, 50 µM turned out to be 63.1%.

Consider `CC(C)C[C@H](c1c(O)c(C=O)c(O)c(C=O)c1O)[C@@]1(C)CC[C@@H]2[C@@H]1[C@H]1[C@@H](CC[C@@]2(C)O)C1(C)C` [MACROCARPAL B], for which the recovery at 2.5 h, 50 µM in data set [1] is 59.5%. The Papp B→A at 1.5 h, 50 µM in [2] amounted to 20 nm/s. The Ratio amounted to 0.77 in the data set with Caco-2 [5], 0.85 in the data set on Caco-2 [13] and 1.25 in the data set with Caco-2 [14]. The Drug uptake in the data set with Caco-2 [6] stood at 46.98%; with Caco-2 [8], 50.56%; with Caco-2 [12] it was 41.19%; in the data set on Caco-2 [15] it was 49.26%; in the data set with Caco-2 [17] it was 63.25%; in the data set on Caco-2 [21], 53.21%. In addition, the recovery at 1.5 h, 50 µM in data set [7] was 64.7%. In addition, in data set [9], the apical-to-basolateral permeability (Papp A→B) at 1.5 h, 50 µM worked out at 17.1 nm/s. In addition, the recovery at 2 h, 50 µM in data set [10] came to 68.7%. For the same compound, in data set [11], the Papp B→A at 1.5 h, 30 µM was determined as 18.4 nm/s. The Papp B→A at 1.5 h, 100 µM in [16] worked out at 21.4 nm/s. Besides, the recovery at 3 h, 50 µM in data set [18] was found to be 55.5%. In addition, the recovery at 0.5 h, 50 µM in [19] was 50%. In [20], the apical-to-basolateral permeability (Papp A→B) at 1.5 h, 100 µM is 16.4 nm/s. The apparent permeability from apical to basolateral (Papp A→B) at 1.5 h, 30 µM in [22] is 22.9 nm/s. In addition, the recovery at 1 h, 50 µM in [23] stood at 56.6%.
